Among the data in patent US8691753B2 (priority 2009, dated 2014) are Ki values, retold here.

Like-named read-outs stand apart in the source and are kept apart here. A value given as a limit tells only on which side of the number the result lay.

Holding throughout (type): biochemical
Test [1] deals with MMP-14h (Homo sapiens (Human), UniProt P50281). Nature of the test: Inhibition constant (Ki) on MMP-14h. As to conditions: human MMP-14. The method in brief:
(§1)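 Protocol from prior literature applied; inhibition constants measured for human enzymes only.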

Test [2] deals with MMP-2h (Homo sapiens (Human), UniProt P08253). As to the kind of experiment: Inhibition constant (Ki) on MMP-2h. As to conditions: human MMP-2. The method in brief:
as §1

Test [3] addresses MMP-13h (Homo sapiens (Human), UniProt P45452). As to the kind of experiment: Inhibition constant (Ki) on MMP-13h. As to conditions: human MMP-13. The method, boiled down: as §1
For test [4], the target named is MMP-3h (Homo sapiens (Human), UniProt P08254). Nature of the test: Inhibition constant (Ki) on MMP-3h. As to conditions: human MMP-3. The method, boiled down:
as §1

Test [5] addresses MMP-12h (Homo sapiens (Human), UniProt P39900). Nature of the test: Inhibition constant (Ki) on MMP-12h. As to conditions: human MMP-12.
For test [6], the target named is MMP-8h (Homo sapiens (Human), UniProt P22894). Nature of the test: Inhibition constant (Ki) on MMP-8h. As to conditions: human MMP-8.
The target in test [7] is MMP-10h (Homo sapiens (Human), UniProt P09238). As to the kind of experiment: Inhibition constant (Ki) on MMP-10h. As to conditions: human MMP-10.
The target of test [8] is MMP-9h (Homo sapiens (Human), UniProt P14780). As to the kind of experiment: Inhibition constant (Ki) on MMP-9h. As to conditions: human MMP-9. The method in brief:
as §1

Chain of MMP-12h (P39900 106-470): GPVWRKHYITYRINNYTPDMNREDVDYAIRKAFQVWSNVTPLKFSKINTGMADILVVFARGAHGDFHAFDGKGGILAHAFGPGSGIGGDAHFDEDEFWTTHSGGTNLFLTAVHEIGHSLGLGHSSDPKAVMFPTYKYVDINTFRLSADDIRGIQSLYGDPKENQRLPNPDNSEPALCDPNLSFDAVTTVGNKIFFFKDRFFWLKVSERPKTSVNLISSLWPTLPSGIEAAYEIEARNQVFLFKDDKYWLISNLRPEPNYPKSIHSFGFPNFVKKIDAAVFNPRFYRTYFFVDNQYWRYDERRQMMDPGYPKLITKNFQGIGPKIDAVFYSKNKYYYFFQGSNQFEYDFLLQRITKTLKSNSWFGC
Chain of MMP-3h (P08254 100-477): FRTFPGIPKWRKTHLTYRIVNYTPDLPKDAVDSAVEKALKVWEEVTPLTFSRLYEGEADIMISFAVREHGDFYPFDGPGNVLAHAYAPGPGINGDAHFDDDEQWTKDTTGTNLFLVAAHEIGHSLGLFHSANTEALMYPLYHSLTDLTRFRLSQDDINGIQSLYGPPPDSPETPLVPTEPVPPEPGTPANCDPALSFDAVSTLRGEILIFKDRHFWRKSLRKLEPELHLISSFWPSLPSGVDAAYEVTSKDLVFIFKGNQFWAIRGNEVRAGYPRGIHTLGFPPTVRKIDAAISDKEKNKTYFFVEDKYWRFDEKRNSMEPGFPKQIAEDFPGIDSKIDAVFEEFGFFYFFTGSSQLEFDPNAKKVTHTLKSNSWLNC
Chain of MMP-2h (P08253 110-660): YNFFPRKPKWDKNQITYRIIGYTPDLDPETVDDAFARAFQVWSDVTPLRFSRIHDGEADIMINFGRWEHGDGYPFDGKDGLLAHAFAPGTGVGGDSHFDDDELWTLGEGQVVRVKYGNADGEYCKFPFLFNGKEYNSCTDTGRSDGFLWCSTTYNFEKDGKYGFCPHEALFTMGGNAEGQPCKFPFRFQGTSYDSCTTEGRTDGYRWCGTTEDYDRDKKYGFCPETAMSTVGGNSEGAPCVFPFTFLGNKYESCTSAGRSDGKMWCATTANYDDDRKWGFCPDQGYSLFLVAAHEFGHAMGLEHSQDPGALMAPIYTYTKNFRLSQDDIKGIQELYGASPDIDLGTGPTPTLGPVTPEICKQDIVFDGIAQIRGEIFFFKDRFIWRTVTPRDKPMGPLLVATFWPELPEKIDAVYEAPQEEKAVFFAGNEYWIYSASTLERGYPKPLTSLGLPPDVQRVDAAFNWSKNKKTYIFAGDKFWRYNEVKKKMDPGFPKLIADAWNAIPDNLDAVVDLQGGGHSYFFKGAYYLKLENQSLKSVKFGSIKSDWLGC
Chain of MMP-8h (P22894 101-467): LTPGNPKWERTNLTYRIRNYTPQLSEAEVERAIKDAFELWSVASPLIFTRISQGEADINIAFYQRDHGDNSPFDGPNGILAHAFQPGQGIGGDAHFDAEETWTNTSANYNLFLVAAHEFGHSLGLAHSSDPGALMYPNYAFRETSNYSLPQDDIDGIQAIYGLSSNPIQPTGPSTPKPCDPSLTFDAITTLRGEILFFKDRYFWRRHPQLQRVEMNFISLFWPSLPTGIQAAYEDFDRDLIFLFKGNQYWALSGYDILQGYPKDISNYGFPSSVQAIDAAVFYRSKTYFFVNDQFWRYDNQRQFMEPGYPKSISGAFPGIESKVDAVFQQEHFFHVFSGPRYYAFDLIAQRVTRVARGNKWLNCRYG
Chain of MMP-9h (P14780 94-707): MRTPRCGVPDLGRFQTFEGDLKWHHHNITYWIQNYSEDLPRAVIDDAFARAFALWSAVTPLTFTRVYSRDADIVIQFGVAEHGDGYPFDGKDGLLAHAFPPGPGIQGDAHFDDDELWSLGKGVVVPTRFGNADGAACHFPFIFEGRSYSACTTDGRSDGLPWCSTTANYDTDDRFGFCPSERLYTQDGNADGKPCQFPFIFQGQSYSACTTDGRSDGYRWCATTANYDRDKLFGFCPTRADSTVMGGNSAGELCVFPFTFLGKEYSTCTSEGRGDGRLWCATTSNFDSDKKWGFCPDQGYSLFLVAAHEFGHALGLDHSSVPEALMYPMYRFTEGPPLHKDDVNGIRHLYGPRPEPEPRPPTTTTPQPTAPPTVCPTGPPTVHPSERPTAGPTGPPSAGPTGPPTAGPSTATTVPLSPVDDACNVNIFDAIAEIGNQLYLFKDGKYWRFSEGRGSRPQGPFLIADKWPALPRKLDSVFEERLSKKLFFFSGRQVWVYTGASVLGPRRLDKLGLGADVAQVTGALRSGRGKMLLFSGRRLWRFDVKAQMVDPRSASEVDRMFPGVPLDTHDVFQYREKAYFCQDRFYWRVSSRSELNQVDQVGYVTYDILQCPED
Chain of MMP-10h (P09238 99-476): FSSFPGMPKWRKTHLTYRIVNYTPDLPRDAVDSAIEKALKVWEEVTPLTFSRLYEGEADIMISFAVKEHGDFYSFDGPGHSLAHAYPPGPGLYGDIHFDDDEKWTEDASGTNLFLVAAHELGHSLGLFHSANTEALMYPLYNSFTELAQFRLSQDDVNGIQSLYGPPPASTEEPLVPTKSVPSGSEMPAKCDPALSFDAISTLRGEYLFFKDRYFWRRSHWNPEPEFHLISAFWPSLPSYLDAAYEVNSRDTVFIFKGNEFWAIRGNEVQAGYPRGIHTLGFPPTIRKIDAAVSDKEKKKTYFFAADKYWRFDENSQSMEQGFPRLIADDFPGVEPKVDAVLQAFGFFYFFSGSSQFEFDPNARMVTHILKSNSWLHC

With `NC(=O)[C@H](CCC(=O)O)NC(=O)[C@H](CC(=O)O)NC(=O)CCc1cc(-c2ccc(-c3ccccc3)cc2)no1` [Compound 17, (S)-5-amino-4-((S)-2-(3-(3-(biphenyl-4-yl)isoxazl-5-yl)propanamido)-3-carboxypropanamido)-5-oxopentanoic acid], the inhibitory constant (Ki) (usually a dissociation constant, usually derived from enzyme kinetics or from competition with a known ligand) in test [1] (read-out: Ki MMP-14h) is above 5000 nM; in test [2] (read-out: Ki MMP-2h), 65 nM; in test [3] (read-out: Ki MMP-13h), 36 nM; in test [4] (read-out: Ki MMP-3h), 699 nM; in test [5] (read-out: Ki MMP-12h) it was 53 nM; in test [6] (read-out: Ki MMP-8h), above 1000 nM. Besides, the inhibitory constant (Ki) in test [7] (read-out: Ki MMP-10h) and in test [8] (read-out: Ki MMP-9h) was above 1000 nM in each case.

Take `NC(=O)[C@H](CCC(=O)O)NC(=O)[C@H](CCC(=O)O)NC(=O)CCc1ccc(-c2nc3ccccc3s2)cc1` [Compound 39, (S)-5-amino-4-((S)-2-(3-(4-(benzo[d]thiazol-2-yl)phenyl)propanamido)-4-carboxybutanamido)-5-oxopentanoic acid]: the inhibition constant Ki in test [1] stood at 547 nM; in test [2], 151 nM; in test [3], 134 nM; in test [4], 88 nM; in test [5], 2.2 nM; in test [6] it was 146 nM. Besides, the Ki in test [7] was 99 nM; in test [8], 618 nM.

For `NCCCC[C@H](NC(=O)[C@H](CCC(=O)O)NC(=O)CCc1ccc(-c2cccs2)cc1)C(N)=O` [Compound 82, (S)-5-((S)-1,6-diamino-1-oxohexan-2-ylamino)-5-oxo-4-(3-(4-(thiophen-2-yl)phenyl)propanamido)pentanoic acid], the inhibitory constant (Ki) in test [1] (read-out: Ki MMP-14h) is above 1000 nM; in test [2] (read-out: Ki MMP-2h), 234 nM; in test [3] (read-out: Ki MMP-13h), above 1000 nM; in test [4] (read-out: Ki MMP-3h), above 10000 nM; in test [5] (read-out: Ki MMP-12h), 44 nM; in test [6] (read-out: Ki MMP-8h), 73 nM. Further, the Ki in test [7] (read-out: Ki MMP-10h) and in test [8] (read-out: Ki MMP-9h) was above 1000 nM in each case.

Consider `O=C(O)CC[C@H](NC(=O)CCc1ccc(-c2ccc(-c3ccccc3)cc2)cc1)C(=O)N1CCC[C@@H](CC(=O)O)C1` [Compound 70, (S)-5-((S)-3-(carboxymethyl)piperidin-1-yl)-4-(3-(4′-phenylbiphenyl-4-yl)propanamido)-5-oxopentanoic acid], for which the Ki in test [1] (read-out: Ki MMP-14h) is above 1000 nM; in test [2] (read-out: Ki MMP-2h), 12 nM; in test [3] (read-out: Ki MMP-13h) it was 17 nM; in test [4] (read-out: Ki MMP-3h) it was 231 nM; in test [5] (read-out: Ki MMP-12h), 4.7 nM; in test [6] (read-out: Ki MMP-8h) it was 105 nM. Also, the inhibitory constant (Ki) in test [7] (read-out: Ki MMP-10h) was 421 nM; in test [8] (read-out: Ki MMP-9h), above 5000 nM.

For the compound `NC(=O)CC[C@H](NC(=O)[C@H](CCC(=O)O)NC(=O)CCc1ccc(-c2ccccc2)cc1)C(N)=O` [Compound 42, (S)-4-(3-(biphenyl-4-yl)propanamido)-5-((S)-1,5-diamino-1,5-dioxopentan-2-ylamino)-5-oxopentanoic acid], the Ki is above 1000 nM in test [1]; 448 nM in test [2]; 884 nM in test [3]; above 5000 nM in test [4]; 48 nM in test [5]; 285 nM in test [6]. In addition, the Ki in test [7] and in test [8] was above 1000 nM each time.

On to `NC(=O)[C@H](CC(=O)O)NC(=O)[C@H](CCC(=O)O)NC(=O)CCc1ccc(-c2ccccc2)cc1` [Compound 45, (S)-5-((S)-1-amino-3-carboxy-1-oxopropan-2-ylamino)-4-(3-(biphenyl-4-yl)propanamido)-5-oxopentanoic acid], for which the Ki in test [1] (read-out: Ki MMP-14h) is above 5000 nM; in test [2] (read-out: Ki MMP-2h), 896 nM; in test [3] (read-out: Ki MMP-13h) it was above 1000 nM; in test [4] (read-out: Ki MMP-3h), above 5000 nM; in test [5] (read-out: Ki MMP-12h) it was 37 nM; in test [6] (read-out: Ki MMP-8h) it was 233 nM. For the same compound, the Ki in test [7] (read-out: Ki MMP-10h) and in test [8] (read-out: Ki MMP-9h) was above 1000 nM in each case.

`NC(=O)[C@H](Cc1c[nH]cn1)NC(=O)[C@H](CCC(=O)O)NC(=O)CCc1ccc(-c2ccc(-c3ccccc3)cc2)cc1` [Compound 67, (S)-5-((S)-1-amino-3-(1H-imidazol-4-yl)-1-oxopropan-2-ylamino)-4-(3-(4′-phenylbiphenyl-4-yl)propanamido)-5-oxopentanoic acid]: the inhibition constant (Ki) in test [1] (read-out: Ki MMP-14h) was above 1000 nM; in test [2] (read-out: Ki MMP-2h), 68 nM; in test [3] (read-out: Ki MMP-13h), 36 nM; in test [4] (read-out: Ki MMP-3h), 337 nM; in test [5] (read-out: Ki MMP-12h), 10.2 nM; in test [6] (read-out: Ki MMP-8h), 526 nM. Moreover, the Ki in test [7] (read-out: Ki MMP-10h) was 168 nM; in test [8] (read-out: Ki MMP-9h) it was above 1000 nM.

For `NC(=O)[C@H](CCCC(=O)O)NC(=O)[C@H](CCC(=O)O)NC(=O)CCc1cc(-c2ccc(-c3cccc(Cl)c3)cc2)no1` [Compound 12, (S)-6-amino-5-((S)-4-carboxy-2-(3-(3-(3′-chlorobiphenyl-4-yl)isoxazol-5-yl)propanamido)butanamido)-6-oxohexanoic acid], the inhibitory constant (Ki) in test [1] (read-out: Ki MMP-14h) was above 5000 nM; in test [2] (read-out: Ki MMP-2h) it was 150 nM; in test [3] (read-out: Ki MMP-13h), 52 nM; in test [4] (read-out: Ki MMP-3h), 129 nM; in test [5] (read-out: Ki MMP-12h), 8.2 nM; in test [6] (read-out: Ki MMP-8h), 452 nM. Besides, the values for the Ki in test [7] (read-out: Ki MMP-10h) and in test [8] (read-out: Ki MMP-9h) were 51 nM and above 1000 nM, respectively.

On to `C[C@H](NC(=O)[C@H](CCC(=O)O)NC(=O)CCc1cc(-c2ccc(-c3ccccc3)cc2)no1)C(N)=O` [Compound 23, (S)-5-((S)-1-amino-1-oxopropan-2-ylamino)-4-(3-(3-(biphenyl-4-yl)isoxazol-5-yl)propanamido)-5-oxopentanoic acid], for which the Ki is above 1000 nM in test [1] (read-out: Ki MMP-14h); 78 nM in test [2] (read-out: Ki MMP-2h); 80 nM in test [3] (read-out: Ki MMP-13h); 460 nM in test [4] (read-out: Ki MMP-3h); 11.2 nM in test [5] (read-out: Ki MMP-12h); 351 nM in test [6] (read-out: Ki MMP-8h). Besides, the Ki was 276 nM in test [7] (read-out: Ki MMP-10h) and above 1000 nM in test [8] (read-out: Ki MMP-9h).

As for `NC(=O)[C@H](CCC(=O)O)NC(=O)[C@@H](CCC(=O)O)NC(=O)CCc1cc(-c2ccc(-c3cccc(Cl)c3)cc2)no1` [Compound 6, (S)-5-amino-4-((R)-4-carboxy-2-(3-(3-(3′-chlorobiphenyl-4-yl)isoxazol-5-yl)propanamido)butanamido)-5-oxopentanoic acid], the Ki is above 10000 nM in test [1] (read-out: Ki MMP-14h); 403 nM in test [2] (read-out: Ki MMP-2h); 235 nM in test [3] (read-out: Ki MMP-13h); above 1000 nM in test [4] (read-out: Ki MMP-3h); 401 nM in test [5] (read-out: Ki MMP-12h); above 5000 nM in test [6] (read-out: Ki MMP-8h). Also, the inhibition constant Ki in test [7] (read-out: Ki MMP-10h) is 489 nM; in test [8] (read-out: Ki MMP-9h), above 5000 nM.

As for `NC(=O)[C@H](CCCC(=O)O)NC(=O)[C@H](CCCC(=O)O)NC(=O)CCc1cc(-c2ccc(-c3cccc(Cl)c3)cc2)no1` [Compound 13, (S)-6-amino-5-((S)-5-carboxy-2-(3-(3-(3′-chlorobiphenyl-4-yl)isoxazol-5-yl)propanamido)pentanamido)-6-oxohexanoïque], the Ki in test [1] was 553 nM; in test [2], above 1000 nM; in test [3] it was 91 nM; in test [4], 575 nM; in test [5], 348 nM; in test [6], 638 nM. Further, the values for the inhibition constant Ki in test [7] and in test [8] were above 5000 nM and 605 nM, respectively.

For the compound `NC(=O)[C@H](CCC(=O)O)NC(=O)[C@H](CCCC(=O)O)NC(=O)CCc1ccc(-c2cc(-c3ccccc3)cs2)cc1` [Compound 102, (S)-6-((S)-1-amino-4-carboxy-1-oxobutan-2-ylamino)-6-oxo-5-(3-(4-(4-phenylthiophen-2-yl)phenyl)propanamido)hexanoic acid], the inhibition constant (Ki) is above 10000 nM in test [1]; above 1000 nM in test [2]; 635 nM in test [3]; above 10000 nM in test [4]; 56 nM in test [5]; above 5000 nM in test [6]. Also, the inhibition constant Ki in test [7] and in test [8] was above 5000 nM each time.

With `NC(=O)[C@H](CC(=O)O)NC(=O)[C@H](CCC(=O)O)NC(=O)CCc1ccc(-c2ccc(-c3ccccc3)cc2)cc1` [Compound 64, (S)-5-((S)-1-amino-3-carboxy-1-oxopropan-2-ylamino)-4-(3-(4′-phenylbiphenyl-4-yl)propanamido)-5-oxopentanoic acid], the Ki in test [1] (read-out: Ki MMP-14h) was above 5000 nM; in test [2] (read-out: Ki MMP-2h), 55 nM; in test [3] (read-out: Ki MMP-13h), 23 nM; in test [4] (read-out: Ki MMP-3h) it was 168 nM; in test [5] (read-out: Ki MMP-12h), 3.3 nM; in test [6] (read-out: Ki MMP-8h) it was 287 nM. Moreover, the inhibitory constant (Ki) in test [7] (read-out: Ki MMP-10h) is 35 nM; in test [8] (read-out: Ki MMP-9h) it was above 1000 nM.

Regarding `NC(=O)[C@H](CO)NC(=O)[C@H](CCC(=O)O)NC(=O)CCc1ccc(-c2ccccc2)cc1` [Compound 49, (S)-5-((S)-1-amino-3-hydroxy-1-oxopropan-2-ylamino)-4-(3-(biphenyl-4-yl)propanamido)-5-oxopentanoic acid], the Ki in test [1] (read-out: Ki MMP-14h) is above 1000 nM; in test [2] (read-out: Ki MMP-2h), 790 nM; in test [3] (read-out: Ki MMP-13h), above 1000 nM; in test [4] (read-out: Ki MMP-3h), above 5000 nM; in test [5] (read-out: Ki MMP-12h) it was 41 nM; in test [6] (read-out: Ki MMP-8h), 204 nM. Also, the Ki in test [7] (read-out: Ki MMP-10h) and in test [8] (read-out: Ki MMP-9h) was above 1000 nM each time.

As to `NC(=O)[C@H](Cc1c[nH]cn1)NC(=O)[C@H](CCC(=O)O)NC(=O)CCc1ccc(-c2cccs2)cc1` [Compound 86, (S)-5-((S)-1-amino-3-(1H-imidazol-4-yl)-1-oxopropan-2-ylamino)-5-oxo-4-(3-(4-(thiophen-2-yl)phenyl)propanamido)pentanoic acid], the Ki in test [1] (read-out: Ki MMP-14h) is above 1000 nM; in test [2] (read-out: Ki MMP-2h) it was 371 nM; in test [3] (read-out: Ki MMP-13h) it was above 1000 nM; in test [4] (read-out: Ki MMP-3h), above 10000 nM; in test [5] (read-out: Ki MMP-12h), 34 nM; in test [6] (read-out: Ki MMP-8h) it was 63 nM. The Ki in test [7] (read-out: Ki MMP-10h) and in test [8] (read-out: Ki MMP-9h) was above 1000 nM throughout.
